The source of these data is patent publication US6294526A, “Use of flavone derivatives for induction of β-lactam-sensitivity of MRSA” (priority 1998, dated 2001).

Molecules are shown by their SMILES. Converted amounts (≈) assume the structure as drawn. Read-outs that look alike come from different tables or passages of the source.

One experiment deals with MRSA No. 5. The experiment is described as follows: effect of flavone on antibacterial activity of antibiotics against MRSA No. 5 in bouillon (broth microdilution). The class given is cell-based, methicillin-resistant Staphylococcus aureus. As to conditions: for MIC: Staphylococcus aureus, MRSA, 20 h; for inhibitory effect on resistance of MRSA No.5 (in words): in the presence of flavone 0.5 mM. The protocol:
Alternatively, the screening of the present invention may be carried out according to the broth microdilution method designated by the Japan Society of Chemotherapy (Chemotherapy 38(1), 102-105 (1990)). Muellar-Hinton broth is used as a culture medium for the sensitivity test, and 50 mg/ml of calcium(Ca) ion, 25 mg/ml of magnesium(Mg) ion, and 2% sodium chloride (NaCl) are added thereto. An inoculating bacteria solution may be prepared by culturing bacteria to be tested in Mueller-Hinton broth at 37° C. for 20 hours and diluting with Mueller-Hinton broth to 10^5 CFU/ml final concentration of inoculating bacteria. Diluted β-lactam solution is prepared by two times serial dilution series. 10 μl of the diluted β-lactam solution and 10 μl of a predetermined concentration of a sample of bacteria to be tested are added to mix with 80 μl of the culture medium for the sensitivity test. To the resultant plate culture medium for sensitivity test, the inoculating bacteria are added and culturing is carried out for 20 hours at 37° C. and then assessment for a minimum inhibition concentration (MIC) is carried out. A minimum inhibition concentration means the minimum concentration of β-lactam at which growth of bacteria is not recognized by the naked eye.
(G) Antibacterial activity of 6 β-lactams, that is, cephalothin, cefuroxime, cefotaxime, cefoxitin, streptomycin and vancomycin, against MRSA in the presence of 0.5 mM flavone was studied in bouillon.
Muellar-Hinton broth was used as a culture medium for the sensitivity test, and 50 mg/ml of calcium (Ca) ion, 25 mg/ml of maqnesium (Mg) ion, 2% sodium chloride (NaCl) were added thereto. An inoculating bacteria solution was prepared by culturing bacteria to be tested with Mueller-Hinton broth at 37° C. for 20 hours and diluting with Mueller-Hinton broth to 10^5 CFU/ml final concentration of inoculating bacteria. Diluted β-lactam solutions were prepared in two times serial dilutions starting from 10 mM. Ten microliters of the diluted β-lactam solution and 10 μl of 5 mM of flavone were mixed with 80 μl of the culture medium for the sensitivity test in a microplate having U-shaped wells and samples of bacteria to be tested were added thereto. The mixture was cultured 20 hours at 37° C. and then assessed for minimum inhibition concentration (MIC). Minimum inhibition concentration means minimum concentration of a β-lactum at which growth of bacteria is inhibited to the extent that bacteria is not recognized by the naked eye.
(Dilution methods test growth across graded concentrations, often in twofold steps.)

In experiment [1] the test system is MRSA. Nature of the experiment: antibacterial activity of antibiotics alone and in the presence of apigenin (4 μg/ml), MRSA. The class given is cell-based, methicillin-resistant Staphylococcus aureus. As to conditions: Staphylococcus aureus, MRSA, 20 h, MRSA. On the procedure:
(§1) The screening of the present invention may be carried out according to the agar plate dilution method designated by the Japan Society of Chemotherapy (Chemotherapy 29(1), 76-79 (1981)). Mueller-Hinton agar base semi-synthetic medium may be used for a plate culture medium for a sensitivity test together with an inoculating bacteria solution which may be prepared by culturing bacteria to be tested at 37° C. for 20 hours diluted with 8.5% by isotonic sodium chloride solution to 10^6 CFU/ml. Diluted β-lactam solutions are prepared by two times serial dilution. 1 ml of the diluted β-lactam solution and 1 ml of a predetermined concentration of a sample to be tested are added to 8 ml of the plate culture medium for a sensitivity test. To the resultant plate culture medium for sensitivity test, the bacteria are inoculated using a microplanter (SAKUMASEISAKUSYO Co.), cultured for 20 hours at 37° C. followed by assessing for a minimum inhibition concentration (MIC).
(D) Then use of 4 μg/ml of apigenin and other antibiotics at the same time was studied. The antibiotics are penicillin , ampicillin, cephalothin, cefoxitin, cefuroxime, cefotaxime, vancomycin, streptomycin, chloramphenicol, kanamycin, erythromycin, nalixic acid and tetracycline.

Experiment [2] has as its system MRSA. Nature of the experiment: antibacterial activity (MIC) by agar plate dilution method, MRSA strains. The format is cell-based, methicillin-resistant Staphylococcus aureus. The following applies: Staphylococcus aureus, 20 h, MRSA (20 strains); for MIC50: read-out: MIC50. The protocol:
as §1
(§2) (A) Antibacterial activities of ether extract from Scutellaria barbata, SB-1 (isolated from Scutellaria barbata), apigenin (authentic sample) and luteolin (authentic sample) were shown in Table 1.
(§3) Flavones were dissolved in methanol and the others were dissolved in 0.1 N NaOH. A method for determination of antibacterial activity is, as described above, an agar plate dilution method designated by the Japan Society of Chemotherapy (Chemotherapy 29(1), 76-79 (1981)) to determine MIC value. MIC80 is a concentration at which a strain is prohibited to proliferate by 80% and MIC50 is a concentration at which a strain is prohibited to proliferate by 50%.

The next experiment relates to MRSA and MSSA. The experiment is described as follows: antibacterial activity (MIC) by agar plate dilution method, MRSA and MSSA strains together. The format is cell-based, Staphylococcus aureus. As to conditions: MRSA and MSSA; for antibacterial activity (in words): Table 2; for MIC: Staphylococcus aureus, 20 h, "in each case", read-out: MIC values (text summary of Table 2). The protocol: as §1, with “(MIC). […]” for “(MIC).”
Antibacterial activity is determined for flavones including flavone, flavonol, flavanone, isoflavone, catechin and calchone, as follows:
as §3

The next experiment deals with MSSA. The experiment is described as follows: antibacterial activity (MIC) by agar plate dilution method, MSSA strains. The format is cell-based, Methicillin-sensitive Staphylooccus aureus. The following applies: Staphylococcus aureus, 20 h, MSSA (7 strains); for MIC50: read-out: MIC50. The protocol: as §1, §2, §3
Where [3] appears, read: Concentration of flavone 0.5 mM.
Setting [4] is: antibiotic with Apigenin (4 μg/ml).

Regarding `CO/N=C(\C(=O)N[C@@H]1C(=O)N2C(C(=O)O)=C(COC(N)=O)CS[C@H]12)c1ccco1` [Cefuroxime, cefuroxime], the MIC – broadly, the lowest concentration found to suppress growth – in the experiment with MRSA No. 5 (Concentration of flavone 0 mM, read-out: MIC) is above 1000 µM; in the experiment on MRSA No. 5 (Concentration of flavone 0.5 mM, read-out: MIC) it was 7.8 µM (≈ 3.31 µg/mL). For the same compound, in the experiment with MRSA No. 5, the “inhibitory effect on resistance of MRSA No.5 (in words)” value is “showed inhibitory effect on resistance of MRSA No.5”. For the same compound, the MIC50 – broadly, the lowest concentration that inhibits either 50% of growth or 50% of the strains tested, depending on the study – in the experiment with MRSA [1] (Antibiotics alone, read-out: MIC50) was above 250 µg/mL; in the experiment on MRSA [1] (antibiotic with Apigenin (4 μg/ml), read-out: MIC50), above 250 µg/mL.

`CC(=O)OCC1=C(C(=O)O)N2C(=O)[C@@H](NC(=O)Cc3cccs3)[C@H]2SC1` [Cephalothin, cephalothin]: the MIC was 500 µM (≈ 198 µg/mL) in the experiment on MRSA No. 5 (Concentration of flavone 0 mM), 1.95 µM (≈ 0.773 µg/mL) against MRSA No. 5 (setting [3]), 0.98 to 250 µg/mL in the experiment on MRSA [1] (Antibiotics alone) and 0.98 to 250 µg/mL with MRSA [1] (setting [4]). For the same compound, the “inhibitory effect on resistance of MRSA No.5 (in words)” value in the experiment on MRSA No. 5 is on record as “showed inhibitory effect on resistance of MRSA No.5”. Also, the MIC50 in the experiment on MRSA [1] (Antibiotics alone) and in the experiment on MRSA [1] (setting [4]) was 125 µg/mL in each case.

Regarding `O=C1C[C@@H](c2ccc(O)c(O)c2)Oc2cc(O)cc(O)c21` [Eriodictyol, eriodictyol], the MIC50 in the experiment with MRSA [2] and in the experiment on MSSA was 250 µg/mL (≈ 867 µM) throughout. Besides, the MIC in the experiment on MRSA [2] (MRSA, range over strains, read-out: MIC) was found to be 250 µg/mL (≈ 867 µM); in the experiment on MRSA and MSSA it was 250 µg/mL (≈ 867 µM); in the experiment with MSSA (MSSA, range over strains, read-out: MIC), 250 µg/mL (≈ 867 µM). In the experiment with MRSA and MSSA, the “antibacterial activity (in words)” value was “showed antibacterial activity”.

Take `O=c1c(O)c(-c2ccc(O)cc2)oc2cc(O)cc(O)c12` [Kaempferol, kaempferol]: the MIC50 in the experiment on MRSA [2] and in the experiment with MSSA was 250 µg/mL (≈ 873 µM) each time. The “antibacterial activity (in words)” value in the experiment with MRSA and MSSA is listed as “showed antibacterial activity”; in the experiment with MRSA and MSSA (listed as kaemferol), “showed activity”. In the experiment with MRSA and MSSA, the MIC was found to be 250 µg/mL (≈ 873 µM).

In the case of `Cc1onc(-c2ccccc2)c1C(=O)N[C@@H]1C(=O)N2[C@@H]1SC(C)(C)[C@@H]2C(=O)O` [Oxacillin, oxacillin], the MIC with MRSA No. 5 (Concentration of flavone 0 mM) was found to be 1000 µM (≈ 401 µg/mL); in the experiment on MRSA No. 5 (setting [3]) it was 15.6 µM (≈ 6.26 µg/mL). Also, the MIC50 with MRSA [1] (Antibiotics alone) and in the experiment with MRSA [1] (setting [4]) was 250 µg/mL in each case.

Turning to `[H]/N=C(/N)N[C@H]1[C@H](O)[C@@H](O)[C@H](O[C@@H]2O[C@@H](C)[C@](O)(C=O)[C@H]2O[C@@H]2O[C@@H](CO)[C@H](O)[C@@H](O)[C@@H]2NC)[C@@H](N/C(N)=N\[H])[C@@H]1O` [Streptomycin, streptomycin], the MIC against MRSA No. 5 (setting [3]) is below 0.98 µM; with MRSA [1] (Antibiotics alone) it was 7.8 to 15.6 µg/mL; in the experiment with MRSA [1] (setting [4]) it was 2 to 15.6 µg/mL. Moreover, the “inhibitory effect on resistance of MRSA No.5 (in words)” value in the experiment on MRSA No. 5 was “appeared not to be showed”. In addition, the MIC50 came out at 7.8 µg/mL in the experiment on MRSA [1] (Antibiotics alone) and 7.6 µg/mL in the experiment on MRSA [1] (setting [4]).

Turning to `CN[C@H](CC(C)C)C(=O)N[C@H]1C(=O)N[C@@H](CC(N)=O)C(=O)N[C@H]2C(=O)N[C@H]3C(=O)N[C@H](C(=O)N[C@H](C(=O)O)c4cc(O)cc(O)c4-c4cc3ccc4O)[C@H](O)c3ccc(c(Cl)c3)Oc3cc2cc(c3O[C@@H]2O[C@H](CO)[C@@H](O)[C@H](O)[C@H]2O[C@H]2C[C@](C)(N)[C@H](O)[C@H](C)O2)Oc2ccc(cc2Cl)[C@H]1O` [Vancomycin, vancomycin], the figures for the MIC in the experiment on MRSA No. 5 (setting [3]), in the experiment with MRSA [1] (Antibiotics alone) and in the experiment on MRSA [1] (setting [4]) were below 0.98 µM, 0.98 to 2 µg/mL and 0.49 to 0.98 µg/mL, respectively. Besides, the “inhibitory effect on resistance of MRSA No.5 (in words)” value in the experiment with MRSA No. 5 is on record as “appeared not to be showed”. For the same compound, the MIC50 was determined as 0.98 µg/mL in the experiment on MRSA [1] (Antibiotics alone) and 0.49 µg/mL in the experiment with MRSA [1] (setting [4]).
